Assay results: patent publication US20250073340A1, “SPIROCYCLIC MDM2 MODULATOR AND USES THEREOF” (Newave Pharmaceutical Inc., priority 2021, published 2025)

What was measured:
[1] = system: BCL-2-dependent acute lymphoblastic leukemia (ALL) cell line RS4;11 overexpressing Bcl-2 G101V; assay: cells; format: cell-based; details: Homo sapiens, RS4-11; about 72 hours, ATPlite luminescence; read-out: RS4;11-G101V IC50
Procedure: Biological Example 2: In vitro Anti-proliferation Assay in BCL-2-dependent acute lymphoblastic leukemia (ALL) cell line RS4; 11 overexpressing Bcl-2 G101V
Cell antiproliferation was assayed by PerkinElmer ATPlite™ Luminescence Assay System. Briefly, the various test cancer cell lines were plated at a density of about 1×10^4 cells per well in Costar 96-well plates, and were incubated with different concentrations of compounds for about 72 hours in medium supplemented with 5% FBS or 10% normal human serum (NHS). One lyophilized substrate solution vial was then reconstituted by adding 5 mL of substrate buffer solution, and was agitated gently until the solution was homogeneous. About 50 μL of mammalian cell lysis solution was added to 100 μL of cell suspension per well of a microplate, and the plate was shaken for about five minutes in an orbital shaker at −700 rpm. This procedure was used to lyse the cells and to stabilize the ATP. Next, 50 μL substrate solution was added to the wells and microplate was shaken for five minutes in an orbital shaker at −700 rpm. Finally, the luminescence was measured by a PerkinElmer TopCount® Microplate Scintillation Counter. Such assays, carried out with a range of doses of test compounds, allowed the determination of the cellular anti-antiproliferative IC50 of the compounds of the present invention.

MDM2 = MDM2 (Homo sapiens (Human), UniProt Q00987); assay: In vitro MDM2 HTRF assay (inhibition of p53-MDM2 interaction); format: binding; details: GST-MDM2 / biotinylated p53 peptide
Chain of MDM2 (Q00987 whole entry): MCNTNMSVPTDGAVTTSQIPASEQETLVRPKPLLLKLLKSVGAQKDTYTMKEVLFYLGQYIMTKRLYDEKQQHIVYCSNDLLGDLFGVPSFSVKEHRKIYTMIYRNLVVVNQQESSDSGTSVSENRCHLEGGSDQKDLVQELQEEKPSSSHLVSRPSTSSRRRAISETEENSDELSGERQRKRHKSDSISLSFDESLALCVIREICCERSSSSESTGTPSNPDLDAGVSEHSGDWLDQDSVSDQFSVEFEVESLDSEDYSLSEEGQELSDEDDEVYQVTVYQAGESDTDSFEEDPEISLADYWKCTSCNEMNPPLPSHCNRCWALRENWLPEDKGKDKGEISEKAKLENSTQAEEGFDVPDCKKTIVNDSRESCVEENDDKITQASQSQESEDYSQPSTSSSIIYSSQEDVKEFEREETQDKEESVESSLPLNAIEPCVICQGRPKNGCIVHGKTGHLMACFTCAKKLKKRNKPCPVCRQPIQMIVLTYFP

SMILES	IC50 [1] [nM]	IC50 (MDM2) [nM]
COc1cc(N2CCC[C@H](C#Cc3cccc4c3CN([C@H]3CCC(=O)NC3=O)C4=O)C2)ccc1NC(=O)[C@@H]1N[C@@H](CC(C)(C)C)[C@@]2(CNc3cc(Cl)ccc32)[C@H]1c1cccc(Cl)c1F [Example 28, (2′S,3S,4′S,5′R)-6-chloro-4′-(3-chloro-2-fluorophenyl)-N-(4-((R)-3-((2-((S)-2,6-dioxopiperidin-3-yl)-1-oxoisoindolin-4-yl)ethynyl)piperidin-1-yl)-2-methoxyphenyl)-2′-neopentylspiro[indoline-3,3′-pyrrolidine]-5′-carboxamide]		10.8
COc1cc(N2CCC[C@H](C#Cc3cccc4c3CN([C@@H]3CCC(=O)NC3=O)C4=O)C2)ccc1NC(=O)[C@@H]1N[C@@H](CC(C)(C)C)[C@@]2(CNc3cc(Cl)ccc32)[C@H]1c1cccc(Cl)c1F [Example 29, (2′S,3S,4′S,5′R)-6-chloro-4′-(3-chloro-2-fluorophenyl)-N-(4-((R)-3-((2-((R)-2,6-dioxopiperidin-3-yl)-1-oxoisoindolin-4-yl)ethynyl)piperidin-1-yl)-2-methoxyphenyl)-2′-neopentylspiro[indoline-3,3′-pyrrolidine]-5′-carboxamide]		12
COc1cc(N2CCC[C@@H](C#Cc3cccc4c3CN([C@H]3CCC(=O)NC3=O)C4=O)C2)ccc1NC(=O)[C@@H]1N[C@@H](CC(C)(C)C)[C@@]2(CNc3cc(Cl)ccc32)[C@H]1c1cccc(Cl)c1F [Example 30, (2′S,3S,4′S,5′R)-6-chloro-4′-(3-chloro-2-fluorophenyl)-N-(4-((S)-3-((2-((S)-2,6-dioxopiperidin-3-yl)-1-oxoisoindolin-4-yl)ethynyl)piperidin-1-yl)-2-methoxyphenyl)-2′-neopentylspiro[indoline-3,3′-pyrrolidine]-5′-carboxamide]		13.2
COc1cc(N2CCC[C@@H](C#Cc3cccc4c3CN([C@@H]3CCC(=O)NC3=O)C4=O)C2)ccc1NC(=O)[C@@H]1N[C@@H](CC(C)(C)C)[C@@]2(CNc3cc(Cl)ccc32)[C@H]1c1cccc(Cl)c1F [Example 31, (2′S,3S,4′S,5′R)-6-chloro-4′-(3-chloro-2-fluorophenyl)-N-(4-((S)-3-((2-((R)-2,6-dioxopiperidin-3-yl)-1-oxoisoindolin-4-yl)ethynyl)piperidin-1-yl)-2-methoxyphenyl)-2′-neopentylspiro[indoline-3,3′-pyrrolidine]-5′-carboxamide]		6.1
COc1cc(C(=O)N2CCC[C@@]3(C[C@H]3C#Cc3cccc4c3CN([C@H]3CCC(=O)NC3=O)C4=O)C2)ccc1NC(=O)[C@@H]1N[C@@H](CC(C)(C)C)[C@@]2(CNc3cc(Cl)ccc32)[C@H]1c1cccc(Cl)c1F [Example 61, (2′S,3S,4′S,5′R)-6-chloro-4′-(3-chloro-2-fluorophenyl)-2′-(2,2-dimethylpropyl)-N-{4-[(1S,3S)-1-(2-{2-[(3S)-2,6-dioxopiperidin-3-yl]-1-oxo-3H-isoindol-4-yl}ethynyl)-5-azaspiro[2.5]octane-5-carbonyl]-2-methoxyphenyl}-1,2-dihydrospiro[indole-3,3′-pyrrolidine]-5′-carboxamide]	5.75	
COc1cc(C(=O)N2CCC[C@@]3(C[C@@H]3C#Cc3cccc4c3CN([C@H]3CCC(=O)NC3=O)C4=O)C2)ccc1NC(=O)[C@@H]1N[C@@H](CC(C)(C)C)[C@@]2(CNc3cc(Cl)ccc32)[C@H]1c1cccc(Cl)c1F [Example 62, (2′S,3S,4′S,5′R)-6-chloro-4′-(3-chloro-2-fluorophenyl)-2′-(2,2-dimethylpropyl)-N-{4-[(1R,3S)-1-(2-{2-[(3S)-2,6-dioxopiperidin-3-yl]-1-oxo-3H-isoindol-4-yl}ethynyl)-5-azaspiro[2.5]octane-5-carbonyl]-2-methoxyphenyl}-1,2-dihydrospiro[indole-3,3′-pyrrolidine]-5′-carboxamide]	40.2	
COc1cc(C(=O)N2CCC[C@]3(C[C@H]3C#Cc3cccc4c3CN([C@H]3CCC(=O)NC3=O)C4=O)C2)ccc1NC(=O)[C@@H]1N[C@@H](CC(C)(C)C)[C@@]2(CNc3cc(Cl)ccc32)[C@H]1c1cccc(Cl)c1F [Example 63, (2′S,3S,4′S,5′R)-6-chloro-4′-(3-chloro-2-fluorophenyl)-2′-(2,2-dimethylpropyl)-N-{4-[(1S,3R)-1-(2-{2-[(3S)-2,6-dioxopiperidin-3-yl]-1-oxo-3H-isoindol-4-yl}ethynyl)-5-azaspiro[2.5]octane-5-carbonyl]-2-methoxyphenyl}-1,2-dihydrospiro[indole-3,3′-pyrrolidine]-5′-carboxamide]	41.6	
COc1cc(C(=O)N2CCC[C@]3(C[C@@H]3C#Cc3cccc4c3CN([C@H]3CCC(=O)NC3=O)C4=O)C2)ccc1NC(=O)[C@@H]1N[C@@H](CC(C)(C)C)[C@@]2(CNc3cc(Cl)ccc32)[C@H]1c1cccc(Cl)c1F [Example 64, (2′S,3S,4′S,5′R)-6-chloro-4′-(3-chloro-2-fluorophenyl)-2′-(2,2-dimethylpropyl)-N-{4-[(1R,3R)-1-(2-{2-[(3S)-2,6-dioxopiperidin-3-yl]-1-oxo-3H-isoindol-4-yl}ethynyl)-5-azaspiro[2.5]octane-5-carbonyl]-2-methoxyphenyl}-1,2-dihydrospiro[indole-3,3′-pyrrolidine]-5′-carboxamide]	188	

Now from value to compound:

IC50 [1] [nM]	IC50 (MDM2) [nM]	SMILES
11	0.58	COc1cc(C(N)=O)ccc1NC(=O)[C@@H]1N[C@@H](CC(C)(C)C)[C@@]2(CNc3cc(Cl)ncc32)[C@H]1c1cccc(Cl)c1F [Example 9, (2S,3S,4S,5R)—N-(4-carbamoyl-2-methoxyphenyl)-6′-chloro-4-(3-chloro-2-fluorophenyl)-2-(2,2-dimethylpropyl)-1′,2′-dihydrospiro[pyrrolidine-3,3′-pyrrolo[3,2-c]pyridine]-5-carboxamide]
	276	COc1cc(C(N)=O)ccc1NC(=O)[C@H]1N[C@H](CC(C)(C)C)[C@]2(CNc3cc(Cl)ncc32)[C@@H]1c1cccc(Cl)c1F [Example 10, (2R,3R,4R,5S)—N-(4-carbamoyl-2-methoxyphenyl)-6′-chloro-4-(3-chloro-2-fluorophenyl)-2-(2,2-dimethylpropyl)-1′,2′-dihydrospiro[pyrrolidine-3,3′-pyrrolo[3,2-c]pyridine]-5-carboxamide]
44.7	0.18	COc1cc(C(N)=O)ccc1NC(=O)[C@@H]1N[C@@H](CC(C)(C)C)[C@@]2(CNc3cc(C(F)(F)F)ncc32)[C@H]1c1cccc(Cl)c1F [Example 11, (2S,3S,4S,5R)—N-(4-carbamoyl-2-methoxyphenyl)-4-(3-chloro-2-fluorophenyl)-2-(2,2-dimethylpropyl)-6′-(trifluoromethyl)-1′,2′-dihydrospiro[pyrrolidine-3,3′-pyrrolo[3,2-c]pyridine]-5-carboxamide]
	103	COc1cc(C(N)=O)ccc1NC(=O)[C@H]1N[C@H](CC(C)(C)C)[C@]2(CNc3cc(C(F)(F)F)ncc32)[C@@H]1c1cccc(Cl)c1F [Example 12, (2R,3R,4R,5S)—N-(4-carbamoyl-2-methoxyphenyl)-4-(3-chloro-2-fluorophenyl)-2-(2,2-dimethylpropyl)-6′-(trifluoromethyl)-1′,2′-dihydrospiro[pyrrolidine-3,3′-pyrrolo[3,2-c]pyridine]-5-carboxamide]
> 1000	114	CC(C)(C)C[C@@H]1N[C@@H](C(=O)N2CCOc3cc(C(N)=O)ccc32)[C@H](c2cccc(Cl)c2F)[C@]12CNc1cc(Cl)ccc12 [Example 14, 4-((2′S,3S,4′S,5′R)-6-chloro-4′-(3-chloro-2-fluorophenyl)-2′-neopentylspiro[indoline-3,3′-pyrrolidine]-5′-carbonyl)-3,4-dihydro-2H-benzo[b][1,4]oxazine-7-carboxamide]
> 1000	638	CC(C)(C)C[C@H]1N[C@H](C(=O)N2CCOc3cc(C(N)=O)ccc32)[C@@H](c2cccc(Cl)c2F)[C@@]12CNc1cc(Cl)ccc12 [Example 15, 4-((2′R,3R,4′R,5′S)-6-chloro-4′-(3-chloro-2-fluorophenyl)-2′-neopentylspiro[indoline-3,3′-pyrrolidine]-5′-carbonyl)-3,4-dihydro-2H-benzo[b][1,4]oxazine-7-carboxamide]
	2.03	COc1cc(C(=O)NCCCC#Cc2cccc3c2CN(C2CCC(=O)N(C)C2=O)C3=O)ccc1NC(=O)[C@@H]1N[C@@H](CC(C)(C)C)[C@@]2(CNc3cc(Cl)ccc32)[C@H]1c1cccc(Cl)c1F (stereo partly drawn) [Example 19, (2′S,3S,4′S,5′R)-6-chloro-4′-(3-chloro-2-fluorophenyl)-2′-(2,2-dimethylpropyl)-N-[2-methoxy-4-({5-[2-(1-methyl-2,6-dioxopiperidin-3-yl)-1-oxo-3H-isoindol-4-yl]pent-4-yn-1-yl}carbamoyl)phenyl]-1,2-dihydrospiro[indole-3,3′-pyrrolidine]-5′-carboxamide]
110		COc1cc(C(=O)O)ccc1NC(=O)[C@@H]1N[C@@H](CC(C)(C)C)[C@](C#N)(c2ccc(Cl)cc2F)[C@H]1c1cccc(Cl)c1F [RG7388, reference compound]
